Assay results as given in patent EP1066315B1 (University of Dundee, priority 1998, dated 2008).
Residues, ends and D or L forms follow the SMILES beside them. *: point of attachment. Fmoc = O=C(OCC1c2ccccc2-c2ccccc21)*; Cbz = O=C(OCc1ccccc1)*; CHN2 = [N-]=[N+]=C*

How the values were obtained:
[1] = system: purified AEP (legumain from pig kidney); assay: Digestion of TTCF with purified AEP in the presence of tetrapeptides; assay type: biochemical; settings: 0.2 mg/ml peptide; Fig 3a
Method: The invention will now be described by reference to the following Examples and Figures wherein • Figure 1: Processing of TTCF by a leupeptin-insensitive cysteine endopeptidase activity. (a) TTCF was digested in vitro in the presence of disrupted lysosomes (1-2 µg) in the presence or absence of iodoacetamide (1 mM), leupeptin, E64 or pepstatin (each at 0.1 mg/ml). Digestions were in 0.1 M NH4 acetate at pH 4.5 or Na2HPO4, pH 6.0 or 7.0. After 4 hours at 37°C, the reactions were separated by Tris-tricine SDS-PAGE and stained with Coomassie Blue. (b) Cleavage sites: TTCF digestion products were separated by SDS PAGE and electrophoretically transferred to nitrocellulose membrane. Individual fragments numbered 1-6 were subjected to 5 cycles of Edman degradation. N-terminal sequence obtained is shown in bold following upstream residues from TTCF (tetanus toxin numbering). The N-terminal sequence of His-tagged TTCF was obtained for fragments 1 and 3. (c) Residues Asn 1184 and Glu 1184 in TTCF were mutated to alanine (see Methods) and digestions performed as before. The mutation abolishes cleavage at the mutated site but not at the first site (doublet at 47 kD). In this experiment cleavage of the third site was minimal. • Figure 2: TTCF is processed by an asparaginyl endopeptidase. (a) Chromatography of the TTCF processing activity on Mono-S resin. Fractions eluted by NaCl gradient were incubated with the substrates Z-Ala-Ala-Asn-NHMec or Z-Phe-Arg-NHMec in the presence or absence of E64 (trans-epoxysuccinyl-L-leucylamido-(4-guanidino)butane). […] (b) Fractions as above were incubated with 10 µg TTCF in the presence or absence of E64 for 4 hours at 37°C prior to SDS-PAGE analysis. (c) Each fraction was analysed by SDS-PAGE and Western blotting. Electrophoretically transferred material was probed with an affinity purified antiserum raised against the peptide KGIGSGKVLKSGPQC from human legumain^1. • Figure 3: Peptide inhibitors of AEP block asparaginyl endopeptidase activity and TTCF processing in vitro and in vivo. […] Release of 7-amino-4-methyl coumarin was measured after 10, 20 or 30 minutes. […] At different times the cells were washed, fixed in 0.05 % glutaraldehyde and antigen presentation measured using proliferation of different autologous TTCF-specific T cell clones. c, AEP pre-processing of TTCF speeds antigen presentation. […] Presentation was measured after 60 minutes of antigen pulsing using EBV B cells.
We decided to test the possibility that high concentrations of asparagine containing peptides might act as competitive inhibitors. […] To establish that inhibition of AEP was specific, we measured the hydrolysis of different synthetic peptide substrates in the presence and absence of these tetrapeptides.

[2] = molecular target: T1, disrupted lysosomes isolated from the human B cell line EDR (TTCF processing activity) (Homo sapiens, UniProt Q99538); assay: Digestion of TTCF by disrupted B cell lysosomes, SDS-PAGE readout; assay type: biochemical; settings: data not shown; for effect on lysosomal TTCF digestion activity: concentration not given
T1 construct: disrupted lysosomes isolated from the human B cell line EDR; endogenous in cells; host or cells: human B cell line EDR, Percoll-gradient lysosomal fraction, disrupted
T1 sequence (Q99538 26-323 limits assumed): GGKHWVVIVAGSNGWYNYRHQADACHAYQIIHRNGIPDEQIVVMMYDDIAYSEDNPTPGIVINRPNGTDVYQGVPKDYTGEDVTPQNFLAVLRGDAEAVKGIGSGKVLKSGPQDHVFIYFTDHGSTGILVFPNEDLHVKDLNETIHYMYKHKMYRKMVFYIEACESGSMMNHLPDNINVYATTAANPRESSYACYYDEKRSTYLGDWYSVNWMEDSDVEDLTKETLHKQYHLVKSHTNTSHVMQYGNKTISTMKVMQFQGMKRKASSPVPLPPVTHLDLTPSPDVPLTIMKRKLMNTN
Method: The invention will now be described by reference to the following Examples and Figures wherein • Figure 1: Processing of TTCF by a leupeptin-insensitive cysteine endopeptidase activity. (a) TTCF was digested in vitro in the presence of disrupted lysosomes (1-2 µg) in the presence or absence of iodoacetamide (1 mM), leupeptin, E64 or pepstatin (each at 0.1 mg/ml). Digestions were in 0.1 M NH4 acetate at pH 4.5 or Na2HPO4, pH 6.0 or 7.0. After 4 hours at 37°C, the reactions were separated by Tris-tricine SDS-PAGE and stained with Coomassie Blue. (b) Cleavage sites: TTCF digestion products were separated by SDS PAGE and electrophoretically transferred to nitrocellulose membrane. Individual fragments numbered 1-6 were subjected to 5 cycles of Edman degradation. N-terminal sequence obtained is shown in bold following upstream residues from TTCF (tetanus toxin numbering). The N-terminal sequence of His-tagged TTCF was obtained for fragments 1 and 3. (c) Residues Asn 1184 and Glu 1184 in TTCF were mutated to alanine (see Methods) and digestions performed as before. The mutation abolishes cleavage at the mutated site but not at the first site (doublet at 47 kD). In this experiment cleavage of the third site was minimal. • Figure 2: TTCF is processed by an asparaginyl endopeptidase. (a) Chromatography of the TTCF processing activity on Mono-S resin. Fractions eluted by NaCl gradient were incubated with the substrates Z-Ala-Ala-Asn-NHMec or Z-Phe-Arg-NHMec in the presence or absence of E64 (trans-epoxysuccinyl-L-leucylamido-(4-guanidino)butane). […] (b) Fractions as above were incubated with 10 µg TTCF in the presence or absence of E64 for 4 hours at 37°C prior to SDS-PAGE analysis. (c) Each fraction was analysed by SDS-PAGE and Western blotting. Electrophoretically transferred material was probed with an affinity purified antiserum raised against the peptide KGIGSGKVLKSGPQC from human legumain^1. • Figure 3: Peptide inhibitors of AEP block asparaginyl endopeptidase activity and TTCF processing in vitro and in vivo. (a) TTCF was digested with purified AEP (legumain from pig kidney) in the presence or absence of 0.2 mg/ml of the peptides indicated. […] (b) Purified AEP or a crude lysosomal protease mixture were incubated with Z-Ala-Ala-Asn-NHMec, Z-Phe-Arg-NHMec (cathepsins L&B) or Z-Val-Val-Ala NHMec (cathepsin S) in the presence of increasing concentrations of AENK or AEQK. Release of 7-amino-4-methyl coumarin was measured after 10, 20 or 30 minutes. […] At different times the cells were washed, fixed in 0.05 % glutaraldehyde and co-cultured with autologous TTCF specific T cell clones. […] Proteins obtained from commercial sources, as described in the literature or custom peptides were digested with purified pig kidney legumain at pH 5.5 in the presence of 1 mM DTT. […] When present peptide was maintained during antigen pulsing at 1 mg/ml (a) or 2 mg/ml (b). At different times the cells were washed, fixed in 0.05 % glutaraldehyde and antigen presentation measured using proliferation of different autologous TTCF-specific T cell clones. c, AEP pre-processing of TTCF speeds antigen presentation. […] Presentation was measured after 60 minutes of antigen pulsing using EBV B cells.
[…]. […] Nor could we reproduce the lysosomal TTCF digestion pattern or indeed generate any of these fragments using purified cathepsins L, S, B, D or E , all of which have been implicated in the class II MHC antigen processing pathway (reviewed in refs 5 & 6).
TTCF processing activity. Lysosomal fractions from the human B cell line EDR were prepared on 27 % Percoll density gradients as previously described^8 using ^125I-labelled transferrin (internalised for 30 minutes at 37°C) and β-hexosaminidase to identify endosomal/plasma membrane and lysosomal fractions respectively. The peak of lysosomes was collected by centrifugation at 40,000 g for 1 hour, removed from the underlying Percoll pellet, collected again at 50,000 g for 1 hour and stored frozen. […]

Compound | effect on lysosomal TTCF digestion activity [2] | also measured
NCCCC[C@H](NC(=O)OCC1c2ccccc2-c2ccccc21)C(=O)N[C@@H](CCC(N)=O)C(=O)N[C@@H](CCC(N)=O)C(=O)N[C@@H](CCC(=O)O)C(N)=O [KQQE] (Fmoc-KQQE-NH2) |  | inhibition of processing of TTCF by AEP [1]: did not inhibit
CC(C)C[C@H](NC(=O)N1CCOCC1)C(=O)N[C@H](/C=C/S(=O)(=O)c1ccccc1)CCc1ccccc1 [LHVS] | without effect | 
CCN1C(=O)C=CC1=O [N-ethyl maleimide] | sensitive | 
[N-]=[N+]=CC(=O)[C@H](Cc1ccccc1)NC(=O)[C@H](Cc1ccccc1)NC(=O)OCc1ccccc1 [Z-Phe-Phe-CHN2] (Cbz-Phe-Phe-CHN2) |  | sensitivity of lysosomal TTCF digestion activity to inhibitor ([2]; high concentrations): sensitive
